Test results from patent publication US20240368163A1, “COMPOUNDS AND METHODS FOR MODULATING SPLICING” (REMIX THERAPEUTICS INC., priority 2021, published 2024).
Read-outs that look alike come from different tables or passages of the source.

Assays:
Type in all cases: cell-based, human
[1] = system: MYB; test: Splicing RT-qPCR assay, MYB mRNA canonical junction (CJ) and alternative junction (AJ); conditions: for AC50: increase in AJ mRNA
Summary of the method: (§1)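 Splice switching is measured in A673 or K562 cells after 24 h compound exposure (maximum 10 uM, 3-fold steps). Canonical and alternative junction mRNA levels are quantified by RT-qPCR relative to housekeeper and DMSO.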

[2] = system: MYB; test: HiBiT protein abundance assay, MYB; conditions: Table 13A, modified K562 cells
Summary of the method: (§2)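 Luminescent readout from lytic HiBiT/LgBiT complementation reports endogenous tagged protein level in engineered K562 cells. Compounds dosed 24 h, top 10 μM final, 3-fold steps, 10 points. IC50 is the concentration giving 50% of untreated-control abundance, from 4-parameter logistic fit.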

[3] = system: HTT; test: Splicing RT-qPCR assay, HTT mRNA canonical junction (CJ) and alternative junction (AJ); conditions: for AC50: increase in AJ mRNA
Summary of the method: as §1

[4] = system: Target C; test: HiBiT protein abundance assay, Target C; conditions: Table 13A, modified K562 cells
Summary of the method: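 Knock-in HiBiT clones, 10000/well; 10-pt 3-fold titration, top 10 μM final; DMSO ≤0.25%; 24 h, 37 °C, 5% CO2. Lytic HiBiT luminescence readout. 4PL fit, IC50 = concentration giving 50% of untreated abundance.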

[5] = system: Target C; test: Splicing RT-qPCR panel, Target C canonical junction (CJ) mRNA; conditions: RT-qPCR panel, canonical junction mRNA, compound concentration having 50% response in CJ decrease, read-out: Target C IC50 (decrease in CJ mRNA levels)
Summary of the method: as §1

[6] = system: SMN2; test: Splicing RT-qPCR panel, SMN2 canonical junction (CJ) mRNA; conditions: RT-qPCR panel, canonical junction mRNA, compound concentration having 50% response in CJ decrease, read-out: SMN2 IC50 (decrease in CJ mRNA levels)
Summary of the method: as §1

[7] = system: HTT; test: HiBiT protein abundance assay, HTT; conditions: Table 13A, modified K562 cells
Summary of the method: as §2

[8] = Homo sapiens, 24 h, decrease in CJ mRNA, A673 or K562 cells, 24 hours treatment, RT-qPCR, read-out: MYB CJ IC50
[9] = Homo sapiens, 24 h, A673 or K562 cells, 24 hours treatment, RT-qPCR
[10] = Homo sapiens, RT-qPCR panel, canonical junction mRNA, compound concentration having 50% response in CJ decrease, read-out: MYB IC50 (decrease in CJ mRNA levels)
[11] = Homo sapiens, RT-qPCR panel, canonical junction mRNA, compound concentration having 50% response in CJ decrease, read-out: HTT IC50 (decrease in CJ mRNA levels)
[12] = Homo sapiens, 24 h, decrease in CJ mRNA, A673 or K562 cells, 24 hours treatment, RT-qPCR, read-out: HTT CJ IC50

SMILES	IC50 [1, 8] [nM]	AC50 [1, 9] [nM]	IC50 [1, 10] [nM]	IC50 ([2]; Homo sapiens, K562, 24 h) [nM]	AC50 [3, 9] [nM]	IC50 [3, 11] [nM]	IC50 ([4]; Homo sapiens, K562, 24 h) [nM]	IC50 ([5]; Homo sapiens) [nM]	IC50 ([6]; Homo sapiens) [nM]	IC50 ([7]; Homo sapiens, K562, 24 h) [nM]	IC50 ([1]; RT-qPCR panel, canonical junction mRNA, compound concentration having 50% response in CJ decrease, read-out: MYB IC50 (decrease in CJ mRNA levels)) [nM]	IC50 ([1]; decrease in CJ mRNA, A673 or K562 cells, 24 hours treatment, RT-qPCR, read-out: MYB CJ IC50) [nM]	IC50 ([2]; 24 hours) [nM]	IC50 ([3]; RT-qPCR panel, canonical junction mRNA, compound concentration having 50% response in CJ decrease, read-out: HTT IC50 (decrease in CJ mRNA levels)) [nM]	IC50 ([3]; decrease in CJ mRNA, A673 or K562 cells, 24 hours treatment, RT-qPCR, read-out: HTT CJ IC50) [nM]	IC50 ([4]; 24 hours) [nM]	IC50 [5] [nM]	IC50 [6] [nM]	IC50 ([7]; 24 hours) [nM]	IC50 [3, 12] [nM]
CN(c1ccc(-c2ccc(-n3cccn3)c3ncsc23)nn1)[C@@H]1C[C@H]2CC[C@@H](C1)N2 [Compound 344]	100 to 1000	100 to 1000	100 to 1000	100 to 1000	100 to 1000	< 100	100 to 1000	100 to 1000	< 100	< 100	–	–	–	–	–	–	–	–	–	–
CC(C)(C)NC1CCN(c2ccc(-c3ccc(-c4cn[nH]c4)c4ncsc34)nn2)C1 (stereo not drawn) [Compound 345, N-tert-butyl-1-{6-[4-(1H-pyrazol-4-yl)-1,3-benzothiazol-7-yl]pyridazin-3-yl} pyrrolidin-3-amine]	–	–	–	–	–	–	–	–	–	–	1000 to 10000	1000 to 10000	1000 to 10000	1000 to 10000	1000 to 10000	1000 to 10000	1000 to 10000	100 to 1000	100 to 1000	–
c1cnn(-c2ccc(-c3ccc(N4CCC(NC5CC5)C4)nn3)c3scnc23)c1 (stereo not drawn) [Compound 346, N-cyclopropyl-1-{6-[4-(pyrazol-1-yl)-1,3-benzothiazol-7-yl]pyridazin-3-yl}pyrrolidin-3-amine]	> 10000	> 10000	> 10000	1000 to 10000	> 10000	> 10000	> 10000	> 10000	> 10000	1000 to 10000	–	–	–	–	–	–	–	–	–	> 10000
c1cnn(-c2ccc(-c3ccc(N4CCC(NC5CC5)C4)nn3)c3[nH]ncc23)c1 (stereo not drawn) [Compound 347, N-cyclopropyl-1-{6-[4-(pyrazol-1-yl)-1H-indazol-7-yl]pyridazin-3-yl}pyrrolidin-3-amine]	> 10000	> 10000	> 10000	1000 to 10000	> 10000	> 10000	> 10000	> 10000	1000 to 10000	1000 to 10000	–	–	–	–	–	–	–	–	–	> 10000
Cc1cc(-c2ccc(-c3ccc(O[C@@H]4C[C@H]5CC[C@@H](C4)N5)nn3)c3scnc23)ccn1 [Compound 349]	1000 to 10000	> 10000	1000 to 10000	100 to 1000	1000 to 10000	1000 to 10000	1000 to 10000	1000 to 10000	< 100	100 to 1000	–	–	–	–	–	–	–	–	–	1000 to 10000
Cl.Fc1cc(-c2ccc(NC3CCNCC3)nn2)c2[nH]ncc2c1-c1cn[nH]c1 [Compound 350, 6-[5-fluoro-4-(1H-pyrazol-4-yl)-1H-indazol-7-yl]-N-(piperidin-4-yl)pyridazin-3-amine hydrochloride]	> 10000	> 10000	> 10000	1000 to 10000	> 10000	> 10000	> 10000	> 10000	> 10000	> 10000	–	–	–	–	–	–	–	–	–	> 10000
CN(c1ccc(-c2cc(F)c(-c3cn[nH]c3)c3cn[nH]c23)nn1)[C@@H]1C[C@H]2CC[C@@H](C1)N2 [Compound 351]	100 to 1000	100 to 1000	100 to 1000	100 to 1000	< 100	< 100	100 to 1000	100 to 1000	< 100	< 100	–	–	–	–	–	–	–	–	–	–
c1nc2c(-c3cn[nH]c3)ccc(-c3ccc(N[C@H]4C[C@H]5COC[C@@H](C4)N5)nn3)c2s1 [Compound 353]	1000 to 10000	> 10000	1000 to 10000	1000 to 10000	1000 to 10000	> 10000	> 10000	1000 to 10000	1000 to 10000	1000 to 10000	–	–	–	–	–	–	–	–	–	> 10000
c1nc2c(-c3cn[nH]c3)ccc(-c3ccc(N[C@@H]4C[C@H]5COC[C@@H](C4)N5)nn3)c2s1 [Compound 354, (endo)-N-{6-[4-(1H-pyrazol-4-yl)-1,3-benzothiazol-7-yl]pyridazin-3-yl}-3-oxa-9-azabicyclo[3.3.1]nonan-7-amine]	100 to 1000	1000 to 10000	100 to 1000	100 to 1000	100 to 1000	< 100	100 to 1000	100 to 1000	< 100	100 to 1000	–	–	–	–	–	–	–	–	–	–
CN(c1ccc(-c2ccc(-c3cn[nH]c3)c3ncsc23)nn1)[C@H]1C[C@H]2COC[C@@H](C1)N2 [Compound 355]	1000 to 10000	1000 to 10000	1000 to 10000	1000 to 10000	1000 to 10000	1000 to 10000	1000 to 10000	1000 to 10000	1000 to 10000	1000 to 10000	–	–	–	–	–	–	–	–	–	1000 to 10000
c1nc2c(-c3cn[nH]c3)ccc(-c3ccc(O[C@@H]4C[C@H]5COC[C@@H](C4)N5)nn3)c2s1 [Compound 357]	100 to 1000	100 to 1000	100 to 1000	100 to 1000	< 100	< 100	100 to 1000	100 to 1000	< 100	< 100	–	–	–	–	–	–	–	–	–	–
c1nc2c(-c3cn[nH]c3)ccc(-c3ccc(O[C@H]4C[C@H]5COC[C@@H](C4)N5)nn3)c2s1 [Compound 358]	1000 to 10000	> 10000	1000 to 10000	1000 to 10000	> 10000	> 10000	> 10000	> 10000	> 10000	> 10000	–	–	–	–	–	–	–	–	–	> 10000
CCc1n[nH]c2c(-c3ccc(N(C)[C@@H]4C[C@H]5CC[C@@H](C4)N5)nn3)ccc(-c3cnn(C)n3)c12 [Compound 359, (1R,3S,5S)-N-{6-[3-ethyl-4-(2-methyl-1,2,3-triazol-4-yl)-1H-indazol-7-yl]pyridazin-3-yl}-N-methyl-8-azabicyclo[3.2.1]octan-3-amine]	> 10000	> 10000	> 10000	1000 to 10000	> 10000	> 10000	> 10000	> 10000	> 10000	> 10000	–	–	–	–	–	–	–	–	–	> 10000
c1nc2c(-c3cn[nH]c3)ccc(-c3ccc(N(C4CC4)C4C[C@H]5CC[C@@H](C4)N5)nn3)c2s1 (stereo partly drawn) [Compound 360, (exo)-N-cyclopropyl-N-{6-[4-(1H-pyrazol-4-yl)-1,3-benzothiazol-7-yl]pyridazin-3-yl}-8-azabicyclo [3.2.1] octan-3-amine]	100 to 1000	100 to 1000	100 to 1000	100 to 1000	< 100	< 100	< 100	100 to 1000	100 to 1000	100 to 1000	–	–	–	–	–	–	–	–	–	–
COc1cc(-c2ccc(-c3ccc(N(C)[C@@H]4C[C@H]5CC[C@@H](C4)N5)nn3)c3[nH]ncc23)ccn1 [Compound 364, (exo)-N-{6-[4-(2-methoxypyridin-4-yl)-1H-indazol-7-yl]pyridazin-3-yl}-N-methyl-8-azabicyclo[3.2.1]octan-3-amine]	100 to 1000	< 100	100 to 1000	< 100	< 100	< 100	< 100	100 to 1000	< 100	< 100	–	–	–	–	–	–	–	–	–	–
CN(c1ccc(-c2ccc(-c3ccc(=O)n(C)c3)c3cn[nH]c23)nn1)[C@@H]1C[C@H]2CC[C@@H](C1)N2 [Compound 365, 5-(7-{6-[(exo)-8-azabicyclo[3.2.1]octan-3-yl(methyl)amino]pyridazin-3-yl}-1H-indazol-4-yl)-1-methylpyridin-2-one]	> 10000	> 10000	> 10000	1000 to 10000	1000 to 10000	1000 to 10000	1000 to 10000	1000 to 10000	1000 to 10000	1000 to 10000	–	–	–	–	–	–	–	–	–	1000 to 10000
